Laboratory results as given in US20030175216A1, “Oral antimicrobial and anti-odor compositions” (Innoscent LTD., priority 2001, published 2003).

Legend:
[1] = test system: odor formation in freshly-taken morning saliva; experiment: Inhibition of in vitro odor formation by higher alcohols (saliva in decarboxylase medium); format: cell-based
Experimental: A series of test tubes were prepared, each containing 5 ml of decarboxylase medium (0.5% peptone, 0.3% yeast extract, 0.1% dextrose and 0.02% bromocresol purple). […] The tubes were incubated at 37° C. for three days. Following incubation, the odor was determined by a panel of odor judges, using the following semi-quantitative scale 0=no odor 1=very slight odor […] The higher alcohols tested were alkanols of chain length C8, C9, C10, C11, C12, C14, C16 and C18.

E. faecalis = experiment: Agar plate zone of growth inhibition; format: cell-based
Experimental: (§1) The higher alcohols were tested for antimicrobial activity against Gram positive bacteria (Streptococcus mutans), Gram negative bacteria (Pseudomonas spp., Escherichia coli, […]) and the yeast Candida albicans. […] Five microliters of the higher alcohol solutions were placed on the surface of a rich (Brain-heart infusion) agar plate immediately after seeding with a mono-specific bacterial or yeast culture. The plates were incubated for 24-48 hours, and, following further microbial proliferation, the diameters of the zones of growth inhibition were measured (results expressed in centimeters).

Pseudomonas aeruginosa = experiment: Agar plate zone of growth inhibition; format: cell-based
Experimental: as §1

C. albicans = experiment: Agar plate zone of growth inhibition; format: cell-based, Candida albicans
Experimental: as §1

E. coli = experiment: Agar plate zone of growth inhibition; format: cell-based, Escherichia coli
Experimental: as §1

S. mutans = experiment: Agar plate zone of growth inhibition; format: cell-based, Streptococcus mutans
Experimental: as §1, with “centimeters). In a further set of experiments, the effect of solvent type on the antimicrobial activity of the C9 alcohol was investigated. […] These solutions were tested for antimicrobial activity towards three microorganisms (M. lysodeikticus, S. mutans and Corynebacterium xerosis) using the same assay as described above. The relationship of the concentration of the C9 alcohol to its antimicrobial activity was also investigated. […] These solutions were tested in the assay described above for their ability to inhibit the growth of the bacteria M. lysodeikticus and S. mutans.” for “centimeters).”

M. lysodeikticus = experiment: Agar plate zone of growth inhibition; format: cell-based
Experimental: (§2) Five microliters of the higher alcohol solutions were placed on the surface of a rich (Brain-heart infusion) agar plate immediately after seeding with a mono-specific bacterial or yeast culture. The plates were incubated for 24-48 hours, and, following further microbial proliferation, the diameters of the zones of growth inhibition were measured (results expressed in centimeters). In a further set of experiments, the effect of solvent type on the antimicrobial activity of the C9 alcohol was investigated. […] These solutions were tested for antimicrobial activity towards three microorganisms (M. lysodeikticus, S. mutans and Corynebacterium xerosis) using the same assay as described above. The relationship of the concentration of the C9 alcohol to its antimicrobial activity was also investigated. […] These solutions were tested in the assay described above for their ability to inhibit the growth of the bacteria M. lysodeikticus and S. mutans.

C. xerosis = experiment: Agar plate zone of growth inhibition; format: cell-based, Corynebacterium xerosis
Experimental: Five microliters of the higher alcohol solutions were placed on the surface of a rich (Brain-heart infusion) agar plate immediately after seeding with a mono-specific bacterial or yeast culture. The plates were incubated for 24-48 hours, and, following further microbial proliferation, the diameters of the zones of growth inhibition were measured (results expressed in centimeters). In a further set of experiments, the effect of solvent type on the antimicrobial activity of the C9 alcohol was investigated. […] These solutions were tested for antimicrobial activity towards three microorganisms (M. lysodeikticus, S. mutans and Corynebacterium xerosis) using the same assay as described above.

[2] = test system: bacteria and yeast tested; experiment: Agar plate growth inhibition, summary statements over the test microorganisms; format: cell-based; conditions: for antimicrobial activity (summary): C. xerosis
Experimental: as §2, with “The higher alcohols were tested for antimicrobial activity against Gram positive bacteria (Streptococcus mutans), Gram negative bacteria (Pseudomonas spp., Escherichia coli, […]) and the yeast Candida albicans. […] Five” for “Five”

[3] = 10 μl of 1% solution, scale 0-5
[4] = 20 μl of 1% solution, scale 0-5
[5] = 30 μl of 1% solution, scale 0-5
[6] = 40 μl of 1% solution, scale 0-5
[7] = 5 μl of 0.1% solution in 70% ethanol
[8] = 5 μl of 1% solution (C8-C12 in 70% ethanol, C14-C18 in 100% ethanol)
[9] = 0.3% C9 in 70% ethanol, concentration series
[10] = 0.5% C9 in 70% ethanol, concentration series
[11] = 1% C9 in 70% ethanol, concentration series
[12] = 1% in 70% ethanol, solvent study
[13] = 2% C9 in 70% ethanol, concentration series
[14] = 3% C9 in 70% ethanol, concentration series
[15] = 4% C9 in 70% ethanol, concentration series
[16] = 5% C9 in 70% ethanol, concentration series
[17] = 10% C9 in 70% ethanol, concentration series

**Q.** `CCCCCCCCCO` [C9, 1-nonanol] was tested. Which “effect on in vitro odor formation (summary)” value ([1]; 10-50 μl of 1% solution) did it give?
**A.** inhibition of odor formation

**Q.** What about the “Odor Score (Judge 1)” value [1, 3] of the same compound?
**A.** 4

**Q.** And the “Odor Score (Judge 2)” value [1, 3]?
**A.** 4

**Q.** What about the “Odor Score (Judge 1)” value [1, 4] of the same compound?
**A.** 4

**Q.** And the “Odor Score (Judge 2)” value [1, 4]?
**A.** 4

**Q.** What about the “Odor Score (Judge 1)” value [1, 5] of the same compound?
**A.** 0

**Q.** And the “Odor Score (Judge 2)” value [1, 5]?
**A.** 0

**Q.** And the “Odor Score (Judge 1)” value [1, 6]?
**A.** 0

**Q.** And the “Odor Score (Judge 2)” value [1, 6]?
**A.** 0

**Q.** What about the “Odor Score (Judge 1)” value ([1]; 50 μl of 1% solution (C8-C12 in 70% ethanol, C14-C18 in 100% ethanol) in 5 ml medium + 200 μl saliva, 3 days 37° C., scale 0 no odor to 5 extremely foul) of the same compound?
**A.** 0

**Q.** And the “Odor Score (Judge 2)” value ([1]; 50 μl of 1% solution, scale 0-5)?
**A.** 0

**Q.** What about the “diameter of zone of growth inhibition, E. faecalis” value (E. faecalis; [7]) of the same compound?
**A.** 0.7 centimeters

**Q.** What about the “diameter of zone of growth inhibition, E. faecalis” value (E. faecalis; [8]) of the same compound?
**A.** 0.9 centimeters

**Q.** What about the “diameter of zone of growth inhibition, Pseudomonas aeruginosa” value (Pseudomonas aeruginosa; 5 μl of 0.05% solution in 70% ethanol) of the same compound?
**A.** 0.7 centimeters

**Q.** And the “diameter of zone of growth inhibition, Pseudomonas aeruginosa” value (Pseudomonas aeruginosa; [7])?
**A.** 0.7 centimeters

**Q.** And the “diameter of zone of growth inhibition, Pseudomonas aeruginosa” value (Pseudomonas aeruginosa; [8])?
**A.** 0.6 centimeters

**Q.** What about the “diameter of zone of growth inhibition, C. albicans” value (C. albicans; [7]) of the same compound?
**A.** 0.8 centimeters

**Q.** And the “diameter of zone of growth inhibition, C. albicans” value (C. albicans; [8])?
**A.** 0.9 centimeters

**Q.** And the “diameter of zone of growth inhibition, E. coli” value (E. coli; [7])?
**A.** 1.0 centimeters

**Q.** What about the “diameter of zone of growth inhibition, E. coli” value (E. coli; [8]) of the same compound?
**A.** 1.0 centimeters

**Q.** And the “diameter of zone of growth inhibition, S. mutans” value (S. mutans; [9])?
**A.** 0.8 centimeters

**Q.** And the “diameter of zone of growth inhibition, S. mutans” value (S. mutans; [10])?
**A.** 0.9 centimeters

**Q.** What about the “diameter of zone of growth inhibition, S. mutans” value (S. mutans; 1% C9 in 2-propanol) of the same compound?
**A.** 1.3 centimeters

**Q.** What about the “diameter of zone of growth inhibition, S. mutans” value (S. mutans; [11]) of the same compound?
**A.** 0.7 centimeters

**Q.** And the “diameter of zone of growth inhibition, S. mutans” value (S. mutans; 1% C9 in 100% methanol)?
**A.** 0.9 centimeters

**Q.** What about the “diameter of zone of growth inhibition, S. mutans” value (S. mutans; [12]) of the same compound?
**A.** 0.8 centimeters

**Q.** And the “diameter of zone of growth inhibition, S. mutans” value (S. mutans; [13])?
**A.** 0.8 centimeters

**Q.** What about the “diameter of zone of growth inhibition, S. mutans” value (S. mutans; [14]) of the same compound?
**A.** 0.9 centimeters

**Q.** What about the “diameter of zone of growth inhibition, S. mutans” value (S. mutans; [15]) of the same compound?
**A.** 1.0 centimeters

**Q.** What about the “diameter of zone of growth inhibition, S. mutans” value (S. mutans; [16]) of the same compound?
**A.** 0.9 centimeters

**Q.** And the “diameter of zone of growth inhibition, S. mutans” value (S. mutans; [7])?
**A.** 0.9 centimeters

**Q.** What about the “diameter of zone of growth inhibition, S. mutans” value (S. mutans; [8]) of the same compound?
**A.** 0.9 centimeters

**Q.** What about the “diameter of zone of growth inhibition, S. mutans” value (S. mutans; [17]) of the same compound?
**A.** 1.0 centimeters

**Q.** What about the “diameter of zone of growth inhibition, M. lysodeikticus” value (M. lysodeikticus; 0.1% C9 in 70% ethanol, concentration series) of the same compound?
**A.** 0.7 centimeters

**Q.** What about the “diameter of zone of growth inhibition, M. lysodeikticus” value (M. lysodeikticus; 0.2% C9 in 70% ethanol, concentration series) of the same compound?
**A.** 0.9 centimeters

**Q.** What about the “diameter of zone of growth inhibition, M. lysodeikticus” value (M. lysodeikticus; [9]) of the same compound?
**A.** 0.7 centimeters

**Q.** And the “diameter of zone of growth inhibition, M. lysodeikticus” value (M. lysodeikticus; [10])?
**A.** 0.7 centimeters

**Q.** What about the “diameter of zone of growth inhibition, M. lysodeikticus” value (M. lysodeikticus; 1% C9 in 2-propanol) of the same compound?
**A.** 1.3 centimeters

**Q.** What about the “diameter of zone of growth inhibition, M. lysodeikticus” value (M. lysodeikticus; [11]) of the same compound?
**A.** 0.7 centimeters

**Q.** What about the “diameter of zone of growth inhibition, M. lysodeikticus” value (M. lysodeikticus; 1% C9 in 100% methanol) of the same compound?
**A.** 0.9 centimeters

**Q.** And the “diameter of zone of growth inhibition, M. lysodeikticus” value (M. lysodeikticus; [12])?
**A.** 0.7 centimeters

**Q.** And the “diameter of zone of growth inhibition, M. lysodeikticus” value (M. lysodeikticus; [13])?
**A.** 0.9 centimeters

**Q.** What about the “diameter of zone of growth inhibition, M. lysodeikticus” value (M. lysodeikticus; [14]) of the same compound?
**A.** 0.9 centimeters

**Q.** And the “diameter of zone of growth inhibition, M. lysodeikticus” value (M. lysodeikticus; [15])?
**A.** 0.9 centimeters

**Q.** And the “diameter of zone of growth inhibition, M. lysodeikticus” value (M. lysodeikticus; [16])?
**A.** 0.9 centimeters

**Q.** What about the “diameter of zone of growth inhibition, M. lysodeikticus” value (M. lysodeikticus; [17]) of the same compound?
**A.** 0.9 centimeters

**Q.** What about the “diameter of zone of growth inhibition, C. xerosis” value (C. xerosis; 1% C9 in 2-propanol) of the same compound?
**A.** 1.0 centimeters

**Q.** And the “diameter of zone of growth inhibition, C. xerosis” value (C. xerosis; 1% C9 in 100% methanol)?
**A.** 0.4 centimeters

**Q.** What about the “diameter of zone of growth inhibition, C. xerosis” value (C. xerosis; [12]) of the same compound?
**A.** 0.9 centimeters

**Q.** What about the “antimicrobial activity (summary)” value ([2]; 1% C9 dissolved in water, M. lysodeikticus, S. mutans) of the same compound?
**A.** almost devoid of activity

**Q.** What about the “antimicrobial activity (summary)” value ([2]; 1% C9 solutions made in the lower alcohols, M. lysodeikticus, S. mutans) of the same compound?
**A.** highly active

**Q.** What about the “share of the maximal antibacterial effect” value ([2]; C9 0.1-0.2% in 70% ethanol, M. lysodeikticus, S. mutans) of the same compound?
**A.** more than 75 % of the maximal effect

**Q.** And the “effect on microbial growth (summary)” value ([2]; Table VI microorganisms)?
**A.** inhibit microbial growth

**Q.** And the spectrum of activity ([2]; among the higher alcohols tested)?
**A.** widest spectrum of activity

**Q.** And the “C9 alcohol concentration giving the greatest antibacterial activity” value ([2]; in 70% ethanol, range 0-10%, M. lysodeikticus, S. mutans)?
**A.** ≥ 3%
